System: 282377-053-R-J1-PDC complex spheroids, viability
Test: Anticancer human tumor 282377-053-R-J1-PDC patient-derived colon adenocarcinoma cell line growth inhibition [GQUAD]
Conditions: for IC50: curve of first compound; for viability, T/C: stronger effect = lower value
From the text: DNA G-quadruplex Stabilizer Agents in Combinations in Complex Spheroids
A high-throughput screen of multi-cell type tumor spheroids was designed to identify active combinations of DNA G-quadruplex stabilizer agents and targeted small molecules. Complex spheroids include a stromal component modeled by human endothelial cells (HUVEC) and fibroblasts modeled by human mesenchymal stem cells (MSCs). The concentration ranges selected for each drug and investigational agent were based upon clinically achievable concentrations if the clinical Cmax of the agent was known.
Compounds. The drugs and investigational agents: pidnarulex (CX-5461; NSC782164), APTO-253 (NSC789042), BRACO-19 (NSC847499), peposertib (NSC802822), ceralasertib (NSC780249), elimusertib (NSC800525), camonsertib (NSC841442), AZD-1390 (NSC803789), olaparib (NSC753686), talazoparib (NSC767125), ART-558 (NSC835418), sotorasib (NSC818433), MRTX-1133 (NSC836407), SN-38 (NSC673596), topotecan (NSC609699), etoposide (NSC141540), doxorubicin (NSC123127), gemcitabine (NSC613327), 5-fluorouracil (NSC19893), paclitaxel (NSC125973), vemurafenib (NSC761431), panobinostat (NSC761190), R-306465 (JNJ-16241199; NSC773264), adavosertib (NSC754352), TP-3654 (NSC805149), carboplatin (NSC241240), KSQ-4279 (NSC840948), and staurosporine (NSC755774) were obtained from the National Cancer Institute (NCI) Developmental Therapeutics Program Chemical Repository (34). The FDA-approved anticancer drug set is available from the NCI Developmental Therapeutics Program. […] The stock solutions were prepared in dimethyl sulfoxide (DMSO, Sigma-Aldrich, St. Louis, MO, cat. D2650) at 800-fold the tested concentration and stored at -70 degrees C prior to their use. All drugs and investigational agents were tested over a range starting from a high concentration at or near the clinical Cmax and decreasing in half-log increments. If the clinical Cmax for an agent had not been determined, the highest concentration tested was 10 microM.
2.3 Cell Culture. All cells were maintained in an incubator at 37 degrees C and 5% CO2 with 95% humidity. The PDC lines were cultured according to standard operating procedures established by the NCI PDMR. All PDCs were thawed and cultured in Matrigel-coated flasks prepared with a working solution of 1X Ham's F-12 nutrient mix, without supplementation (Invitrogen, cat. 11765054), 100 U/mL penicillin-streptomycin (Invitrogen, cat. 15140122), and 2.5% Matrigel (Corning Inc., cat. 354248) for the first three passages. The 857933-349-R-J2-PDC line was cultured in 6C/Colon 1B media, which includes advanced DMEM/F-12 (Thermo Fisher Scientific, cat. 12634028), 10 mM HEPES (Thermo Fisher Scientific, cat. 15630080), 1X GlutaMAX supplement (Thermo Fisher Scientific, cat. 35050061), 0.1 mg/mL primocin (InvivoGen, cat. ant-pm-2), 10% defined fetal bovine serum, heat inactivated (HyClone Laboratories Inc., cat. SH30070.03HI), 50% L-WRN conditioned media (ATCC, cat. CRL-3276), 1.25 mM N-Acetyl-L-cysteine (Sigma-Aldrich, cat. A9165), 10 mM nicotinamide (Sigma-Aldrich, cat. N0636), 1X B-27 supplement (Thermo Fisher Scientific, cat. 17504044), 1X N-2 supplement (Thermo Fisher Scientific, cat. 17502048), 10 microM Y-27632 dihydrochloride (Tocris Bioscience, cat. 1254), and 50 ng/mL human EGF recombinant protein (Thermo Fisher Scientific, cat. PHG0311). The 485176-168-R4-J1-PDC line was cultured in Panc media, which includes all 6C/Colon 1B media components plus 100 ng/mL human FGF-10 (Thermo Fisher Scientific, cat. 100-26), 500 nM SB-431542 (Selleckchem, cat. S1067), and gastrin (Tocris, cat. 3006).
[…]

[1] = second compound 0.0316 µM, first compound 0.0316 µM
[2] = second compound 0.0316 µM, first compound 0.1 µM
[3] = second compound 0.0316 µM, first compound 0.316 µM
[4] = second compound 0.0316 µM, first compound 1 µM
[5] = second compound 0.0316 µM, first compound 3.16 µM
[6] = second compound 0.0316 µM, first compound 10 µM
[7] = second compound 0.1 µM, first compound 0.0316 µM
[8] = second compound 0.1 µM, first compound 0.1 µM
[9] = second compound 0.1 µM, first compound 0.316 µM
[10] = second compound 0.1 µM, first compound 1 µM
[11] = second compound 0.1 µM, first compound 3.16 µM
[12] = second compound 0.1 µM, first compound 10 µM
[13] = second compound 0.316 µM, first compound 0.0316 µM
[14] = second compound 0.316 µM, first compound 0.1 µM
[15] = second compound 0.316 µM, first compound 0.316 µM
[16] = second compound 0.316 µM, first compound 1 µM
[17] = second compound 0.316 µM, first compound 3.16 µM
[18] = second compound 0.316 µM, first compound 10 µM
[19] = second compound 1 µM, first compound 0.0316 µM
[20] = second compound 1 µM, first compound 0.1 µM
[21] = second compound 1 µM, first compound 0.316 µM
[22] = second compound 1 µM, first compound 1 µM
[23] = second compound 1 µM, first compound 3.16 µM
[24] = second compound 1 µM, first compound 10 µM
[25] = second compound 3.16 µM, first compound 0.0316 µM
[26] = second compound 3.16 µM, first compound 0.1 µM
[27] = second compound 3.16 µM, first compound 0.316 µM
[28] = second compound 3.16 µM, first compound 1 µM
[29] = second compound 3.16 µM, first compound 3.16 µM
[30] = second compound 3.16 µM, first compound 10 µM
[31] = second compound 10 µM, first compound 0.0316 µM
[32] = second compound 10 µM, first compound 0.1 µM
[33] = second compound 10 µM, first compound 0.316 µM
[34] = second compound 10 µM, first compound 1 µM
[35] = second compound 10 µM, first compound 3.16 µM
[36] = second compound 10 µM, first compound 10 µM
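Note: spheroids exposed to compounds for 7 days before readout.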
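Throughout, for viability, T/C: percent of vehicle DMSO control viability with 100% = untreated-like growth.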

Which results are given for `COc1cc(C2c3cc4c(cc3C(OC3OC5COC(C)OC5C(O)C3O)C3COC(=O)C23)OCO4)cc(OC)c1O` (centres undefined) + Cc1[nH]c2ccc(F)cc2c1-c1nc2c3cccnc3c3ncccc3c2[nH]1?
IC50 (second compound 0.0316 µM): > 10000 nM; IC50 (second compound 0.1 µM): > 10000 nM; IC50 (second compound 0.316 µM): > 10000 nM; IC50 (second compound 1 µM): > 10000 nM; IC50 (second compound 3.16 µM): 1230 nM; IC50 (second compound 10 µM): 384 nM; viability, T/C [1]: 99.9%; viability, T/C [2]: 102%; viability, T/C [3]: 104%; viability, T/C [4]: 89%; viability, T/C [5]: 66.5%; viability, T/C [6]: 62.6%; viability, T/C [7]: 94.3%; viability, T/C [8]: 108%; viability, T/C [9]: 83.5%; viability, T/C [10]: 98.2%; viability, T/C [11]: 76.4%; viability, T/C [12]: 70.1%; viability, T/C [13]: 102%; viability, T/C [14]: 117%; viability, T/C [15]: 96.2%; viability, T/C [16]: 105%; viability, T/C [17]: 76.9%; viability, T/C [18]: 54.2%; viability, T/C [19]: 113%; viability, T/C [20]: 95.5%; viability, T/C [21]: 95.2%; viability, T/C [22]: 94.1%; viability, T/C [23]: 72%; viability, T/C [24]: 54.4%; viability, T/C [25]: 72.5%; viability, T/C [26]: 85.6%; viability, T/C [27]: 73.5%; viability, T/C [28]: 56%; viability, T/C [29]: 24.8%; viability, T/C [30]: 23.2%; viability, T/C [31]: 52.7%; viability, T/C [32]: 44%; viability, T/C [33]: 63.8%; viability, T/C [34]: 32.7%; viability, T/C [35]: 16.1%; viability, T/C [36]: 17.5%

For `COc1cccc2c1C(=O)c1c(O)c3c(c(O)c1C2=O)CC(O)(C(=O)CO)CC3OC1CC(N)C(O)C(C)O1` (centres undefined) + Cc1[nH]c2ccc(F)cc2c1-c1nc2c3cccnc3c3ncccc3c2[nH]1, which IC50 (second compound 0.0316 µM) is on record?
Its IC50 is 1350 nM.

What about the IC50 (second compound 0.1 µM) of the same compound?
Its IC50 is 1320 nM.

What about the IC50 (second compound 0.316 µM) of the same compound?
The IC50 was 1080 nM.

What about the IC50 (second compound 1 µM) of the same compound?
Its IC50 is 991 nM.

What about the IC50 (second compound 3.16 µM) of the same compound?
Its IC50 is 222 nM.

What about the IC50 (second compound 10 µM) of the same compound?
The IC50 was less than 31.6 nM.

What about the viability, T/C [1] of the same compound?
Its viability, T/C is 108%.

And the viability, T/C [2]?
The viability, T/C was 99.2%.

What about the viability, T/C [3] of the same compound?
Its viability, T/C is 86.4%.

And the viability, T/C [4]?
The viability, T/C was 64.1%.

And the viability, T/C [5]?
The viability, T/C was 18.5%.

And the viability, T/C [6]?
Its viability, T/C is 1.16%.

And the viability, T/C [7]?
Its viability, T/C is 94.4%.

And the viability, T/C [8]?
The viability, T/C was 114%.

And the viability, T/C [9]?
The viability, T/C was 81.3%.

And the viability, T/C [10]?
Its viability, T/C is 64%.

What about the viability, T/C [11] of the same compound?
Its viability, T/C is 16.8%.

What about the viability, T/C [12] of the same compound?
Its viability, T/C is 1.17%.

What about the viability, T/C [13] of the same compound?
Its viability, T/C is 98.1%.

What about the viability, T/C [14] of the same compound?
Its viability, T/C is 129%.

What about the viability, T/C [15] of the same compound?
Its viability, T/C is 83.4%.

And the viability, T/C [16]?
Its viability, T/C is 54%.

And the viability, T/C [17]?
The viability, T/C was 16.8%.

What about the viability, T/C [18] of the same compound?
The viability, T/C was 0.84%.

What about the viability, T/C [19] of the same compound?
Its viability, T/C is 106%.

And the viability, T/C [20]?
The viability, T/C was 116%.

And the viability, T/C [21]?
Its viability, T/C is 85.3%.

And the viability, T/C [22]?
The viability, T/C was 47.3%.

And the viability, T/C [23]?
The viability, T/C was 22%.

What about the viability, T/C [24] of the same compound?
Its viability, T/C is 0.99%.

What about the viability, T/C [25] of the same compound?
Its viability, T/C is 78%.

What about the viability, T/C [26] of the same compound?
Its viability, T/C is 74.3%.

What about the viability, T/C [27] of the same compound?
Its viability, T/C is 32%.

What about the viability, T/C [28] of the same compound?
Its viability, T/C is 29.8%.

And the viability, T/C [29]?
The viability, T/C was 9.5%.

And the viability, T/C [30]?
The viability, T/C was 0.94%.

And the viability, T/C [31]?
Its viability, T/C is 36.5%.

And the viability, T/C [32]?
Its viability, T/C is 47.2%.

What about the viability, T/C [33] of the same compound?
Its viability, T/C is 23.8%.

What about the viability, T/C [34] of the same compound?
The viability, T/C was 18.4%.

What about the viability, T/C [35] of the same compound?
Its viability, T/C is 7.13%.

What about the viability, T/C [36] of the same compound?
The viability, T/C was 0.99%.

— PubChem BioAssay AID2060501 (Molecular Pharmacology Branch, DTP, NCI, 2025)
